Our source for the IC50 and GI50 values is patent publication US20240239792A1, “MODULATORS OF BCL-2 OR BCL-2/BCL-XL AND USES THEREOF” (APPICINE THERAPEUTICS (HK) LIMITED, priority 2021, published 2024).

The target in one assay is T1, BCL-2 (Homo sapiens, UniProt P10415).
T1 construct: purchased Cisbio 63ADK000CB01PEG
Nature of the assay: HTRF BCL-2/BAK assay (Cisbio). The class given is binding. The conditions noted are these: recombinant human Tag1-BCL-2 2 nM, Tag2-BAK 10 nM. The method, then: (§1) Then the pre-mixed anti-Tag1-Eu^3+ and anti-tag2-XL665 were added to the plate and further incubated at room temperature for another 2 hours. The signals ([…]) were read on Envision 2104 instrument. The IC50 for each compound was derived from fitting the signal of 665/615 nM to the increasing compound concentration.
(§2) Using the above assays, the following compounds were tested.
Background: In TR-FRET formats the signal depends on donor and acceptor labels being close together.

The target of the next assay is T2, BCL-XL (Homo sapiens, UniProt Q07817).
T2 construct: purchased Cisbio 63ADK000CB04PEG
T2 sequence (Q07817 whole entry): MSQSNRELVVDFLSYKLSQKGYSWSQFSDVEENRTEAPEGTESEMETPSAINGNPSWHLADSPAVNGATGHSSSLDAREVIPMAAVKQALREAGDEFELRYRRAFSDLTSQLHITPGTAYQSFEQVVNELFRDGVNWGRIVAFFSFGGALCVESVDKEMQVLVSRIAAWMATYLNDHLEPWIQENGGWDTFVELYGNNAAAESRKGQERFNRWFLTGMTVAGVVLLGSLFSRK
Nature of the assay: HTRF BCL-XL/BAK assay (Cisbio). The format is binding. The conditions noted are these: recombinant human Tag1-BCL-XL 2 nM, Tag2-BAK 5 nM. The method, then:
as §1, §2

The next assay has as its system DOHH2 cells. Nature of the assay: CellTiter-Glo cell proliferation assay, DOHH2 cells. The format is cell-based. The conditions noted are these: Homo sapiens, DOHH-2, 72 hours. The method, boiled down: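 DOHH2 cells seeded in DMEM + 10% FBS, exposed to serially diluted compound for 72 h at 37 °C, 5% CO2. Viability read by CellTiter-Glo luminescence; GI50 calculated.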

A value given as a limit tells only on which side of the number the result lay.

T1 sequence (P10415 whole entry): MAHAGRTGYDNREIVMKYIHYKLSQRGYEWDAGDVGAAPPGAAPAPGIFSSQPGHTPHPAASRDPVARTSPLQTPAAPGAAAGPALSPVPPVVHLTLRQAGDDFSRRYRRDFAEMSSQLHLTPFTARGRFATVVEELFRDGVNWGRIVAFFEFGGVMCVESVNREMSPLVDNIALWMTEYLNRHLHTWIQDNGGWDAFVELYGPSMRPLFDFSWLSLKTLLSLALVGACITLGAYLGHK

As usually defined, the IC50 is the concentration needed to halve the response being measured. The term GI50 denotes the concentration that inhibits growth by half. Lower therefore signals greater sensitivity of the cells. Consider `O=C(NS(=O)(=O)c1ccc(NCC2CC3(COC3)C2)c([N+](=O)[O-])c1)c1ccc(N2CCN(C3CCCCc4c(Cl)cccc43)CC2)cc1Oc1cnc2[nH]ccc2c1` (stereo not drawn) [Compound 46, 2-((1H-pyrrolo[2,3-b]pyridin-5-yl)oxy)-N-((4-(((2-oxaspiro[3.3]heptan-6-yl)methyl)amino)-3-nitrophenyl)sulfonyl)-4-(4-(1-chloro-6,7,8,9-tetrahydro-5H-benzo[7]annulen-5-yl)piperazin-1-yl)benzamide], for which the half-inhibitory concentration (IC50) on BCL-2 was below 20 nM; on BCL-XL it was 20 to 200 nM. In the assay on DOHH2 cells, this compound showed a GI50 below 50 nM.

For the compound `CCOC(=O)CN1CCC2(CC1)CC(CNc1ccc(S(=O)(=O)NC(=O)c3ccc(N4CCN([C@@H]5CCCCc6c(Cl)cccc65)CC4)cc3Oc3cnc4[nH]ccc4c3)cc1[N+](=O)[O-])C2` [Compound 122, ethyl (R)-2-(2-(((4-(N-(2-((1H-pyrrolo[2,3-b]pyridin-5-yl)oxy)-4-(4-(1-chloro-6,7,8,9-tetrahydro-5H-benzo[7]annulen-5-yl)piperazin-1-yl)benzoyl)sulfamoyl)-2-nitrophenyl)amino)methyl)-7-azaspiro[3.5]nonan-7-yl)acetate], the IC50 is below 20 nM at BCL-2 and 20 to 200 nM on BCL-XL. In the assay on DOHH2 cells, the GI50 was below 50 nM.

For `NCCN1CCC2(CC1)CC(CNc1ccc(S(=O)(=O)NC(=O)c3ccc(N4CCN([C@@H]5CCCCc6c(Cl)cccc65)CC4)cc3)cc1[N+](=O)[O-])C2` [Compound 120, (R)-N-((4-(((7-(2-aminoethyl)-7-azaspiro[3.5]nonan-2-yl)methyl)amino)-3-nitrophenyl)sulfonyl)-4-(4-(1-chloro-6,7,8,9-tetrahydro-5H-benzo[7]annulen-5-yl)piperazin-1-yl)benzamide], the IC50 on BCL-2 and at BCL-XL was 20 to 200 nM throughout. In the assay on DOHH2 cells, this compound had a GI50 of 500 to 5000 nM.

For the compound `O=C(NS(=O)(=O)c1ccc(NCC2CC3(CCOCC3)C2)c([N+](=O)[O-])c1)c1ccc(N2CCN([C@@H]3CCCCc4c(Cl)cccc43)CC2)cc1Oc1cnc2[nH]ccc2c1` [Compound 99, (R)-2-((1H-pyrrolo[2,3-b]pyridin-5-yl)oxy)-N-((4-(((7-oxaspiro[3.5]nonan-2-yl)methyl)amino)-3-nitrophenyl)sulfonyl)-4-(4-(1-chloro-6,7,8,9-tetrahydro-5H-benzo[7]annulen-5-yl)piperazin-1-yl)benzamide], the figures for the IC50 on BCL-2 and at BCL-XL were below 20 nM and 20 to 200 nM, respectively. In the assay with DOHH2 cells, the 50% growth inhibitory concentration (GI50) was below 50 nM.

For the compound `O=C(NS(=O)(=O)c1ccc(NCC2CCC3(CC2)COC3)c([N+](=O)[O-])c1)c1ccc(N2CCN(C3CCCCc4c(Cl)cccc43)CC2)cc1Oc1cnc2[nH]ccc2c1` (stereo not drawn) [Compound 38, 2-((1H-pyrrolo[2,3-b]pyridin-5-yl)oxy)-N-((4-(((2-oxaspiro[3.5]nonan-7-yl)methyl)amino)-3-nitrophenyl)sulfonyl)-4-(4-(1-chloro-6,7,8,9-tetrahydro-5H-benzo[7]annulen-5-yl)piperazin-1-yl)benzamide], the IC50 is below 20 nM on BCL-2 and 200 to 2000 nM on BCL-XL. In addition, the GI50 with DOHH2 cells is below 50 nM.

For `CCOC(=O)CCN1CCC2(CC1)CC(CNc1ccc(S(=O)(=O)NC(=O)c3ccc(N4CCN([C@@H]5CCCCc6c(Cl)cccc65)CC4)cc3Oc3cnc4[nH]ccc4c3)cc1[N+](=O)[O-])C2` [Compound 130, ethyl (R)-3-(2-(((4-(N-(2-((1H-pyrrolo[2,3-b]pyridin-5-yl)oxy)-4-(4-(1-chloro-6,7,8,9-tetrahydro-5H-benzo[7]annulen-5-yl)piperazin-1-yl)benzoyl)sulfamoyl)-2-nitrophenyl)amino)methyl)-7-azaspiro[3.5]nonan-7-yl)propanoate], the IC50 on BCL-2 and at BCL-XL was below 20 nM throughout. In the assay with DOHH2 cells, this compound returned a 50% growth inhibitory concentration (GI50) below 50 nM.
